Experimental data: patent US20130303562A1, “CHEMICAL AND RNAI SUPPRESSORS OF NEUROTOXICITY IN HUNTINGTON'S DISEASE” (priority 2010, published 2013)
“Also recorded” adds a separate entry of the source. Read-outs that look alike come from different tables or passages of the source.

Tests used:
[1] = tested on: Htt-Q138 expressing Drosophila primary neural cultures; assay: Morphological analysis of small-molecule treated Htt-Q138 primary neural cultures versus Htt-Q15 controls; type: cell-based; conditions: for Morphology profiles of Q138 expressing neurons (effect in words): Htt-Q138 primary neural cultures, compared with Htt-Q15 controls
Description: Primary Cell Culture. Elav^c155-GAL4 virgins were collected en-masse and crossed to either UAS-Htt-Q138-mRFP^1, UAS-mCD8-GFP or UAS-HttQ15-mRFP^1, UAS-mCD8-GFP males to generate embryos for primary culture preparation.
Compound screening: Primary cultures were re-suspended directly in Shields and Sang M3 media (Sigma) supplemented with 10 U/mL penicillin, 10 μg/mL streptomycin, 200 ng/mL insulin, and 5% fetal bovine serum. […] The neuroblast density was 18,500 cells/well. The primary screen was carried out in duplicate and hits were validated with 12 additional replicate wells.
Microscopy: For high-content screening mature 7-day old cultures were imaged with an ImageXpress^MICRO robotic microscope (Molecular Devices, Sunnyvale, Calif.) using a 10× objective and FITC/Cy3 filter sets. […] Laser-based autofocusing was used to locate plate bottoms, and then image-based focusing used to resolve fluorescently labeled neurons over a 48 μm range. The GFP and mRFP channels were imaged in the same focal plane, with exposure times of 850 and 400 ms respectively. Three sites were imaged per well for each treatment group, and the screen was done in duplicate. For confocal microscopy of primary cultures, neuroblasts were plated on poly-L-lysine coated chambered cover slips (LabTekII, 0.8 cm^2/well) at 18,300 cells/well in 50 μL volume. Small molecules were added to cultures 24 hours after plating, incubated for 7 days, and then imaged with a Leica TCS-SP2 confocal LSM microscope.
Digital Image Analysis of High Content Screening Data Sets: Neuronal morphological analysis and Htt aggregate quantification for automated microscopy images was performed as previously described (Schulte et al., Wu et al.). In brief, Htt-Q138 aggregates were quantified as the total number of pixels/image with an intensity higher than an empirically set threshold. Statistical analysis was conducted using a two sample t-test. To quantify neuronal morphologies, cell body clusters (neuromeres) and neurites were extracted from images using our custom algorithms (Wu et al.). […] Absolute counts of neuromeres/bin were tabulated for all images. Neurite segment lengths were similarly clustered into three groups (short, medium, and long) using the K-means method and then quantified. Cell cluster and neurite counts were converted into percentages to control for any variation in cell number between wells arising from pipetting error. Mean neuromere area and neurite length for each image were also calculated to give a total of eight morphological metrics for image morphology quantification. For statistical analysis, p-values for each morphological feature were calculated using a two sample t-test (e.g. small neuromere feature of Htt-Q138 drug-treated cultures versus small neuromere feature of Htt-Q15 DMSO cultures). […] The combined statistic has a χ^2 distribution with 2k degrees of freedom under the joint null hypothesis. This method works well in cases where the evidence against the null-hypothesis is spread across different features. Excluded from analysis were compound-treated wells with <6 images, out-of-focus images, or images that lacked cell profiles altogether.

[2] = tested on: Htt-Q138 expressing primary neural cultures; assay: In vitro validation of screen hits by confocal microscopy of primary cultures on glass coverslips; type: cell-based, Drosophila; conditions: for Aggregate formation (confocal): 56 μM, Htt-Q138 expressing cultures
Text: FIG. 4. In vitro validation of small molecule screen hits. Confocal microscopy images of primary cultures plated on glass coverslips and treated with either DMSO (A,B) or test compounds (C,D). […] HttQ15 is soluble and fills most neurite processes. […] (E) Quantification of altered Htt138Q distribution following Camptothecin treatment.
(§1) Microscopy: For high-content screening mature 7-day old cultures were imaged with an ImageXpress^MICRO robotic microscope (Molecular Devices, Sunnyvale, Calif.) using a 10× objective and FITC/Cy3 filter sets. Images were 1392×1040 pixels, or 897×670 micrometers. Laser-based autofocusing was used to locate plate bottoms, and then image-based focusing used to resolve fluorescently labeled neurons over a 48 μm range. The GFP and mRFP channels were imaged in the same focal plane, with exposure times of 850 and 400 ms respectively. Three sites were imaged per well for each treatment group, and the screen was done in duplicate. For confocal microscopy of primary cultures, neuroblasts were plated on poly-L-lysine coated chambered cover slips (LabTekII, 0.8 cm^2/well) at 18,300 cells/well in 50 μL volume. Small molecules were added to cultures 24 hours after plating, incubated for 7 days, and then imaged with a Leica TCS-SP2 confocal LSM microscope.

[3] = tested on: HD larvae (Elav^c155-GAL4; UAS-Htt-Q138/+); assay: In vivo rescue: viability of HD larvae after 5-day drug dosing in liquid culture; design: species or system Drosophila; conditions: larvae reared in liquid culture, 5-day dosing, compared to DMSO-treated controls
Description: In vivo Rescue studies: For small molecule in vivo rescue studies, Elav^c155; UAS-Htt-Q138-mRFP^1, UAS-mCD8-GFP/+1st instar larvae were collected en-masse and dispensed into liquid yeast media (10 larvae/well) containing therapeutic agents at three different concentrations as described in the results (n=8 replicas/concentration). Cultures were reared at 21° C. and larval viability was assessed after 5 days and the mean number of living Htt138Q larvae (i.e. GFP^+, Htt138QmRFP^+, and mobile) was tabulated, and expressed as a percentage of total larvae/well. For genetic rescue studies with lkb1, two Htt138Q strains were utilized: a strong expressing line, UAS-Htt138QmRFP^1 which is pharate lethal when crossed to Elav^c155, and a weaker expressing line, UAS-Htt138QmRFP^2 which survives to adulthood and is viable for a number of weeks. Using the strong line, pharate lethality at 25° C. was calculated after lkb1 (lkb1^4B1-11 and lkb1^4A4-2 alleles) was introduced into an Elav^c155, UAS-Htt/+background. Lkb1^4B1-11 is a premature truncation allele (Q98>Stop), and lkb1^4A4-2 is an EMS null allele (589 b.p. deletion removing 150 b.p. of the 5′ UTR, the start codon and the beginning of the open reading frame). For Top1 in vivo analysis, Elav^c155, Top^112 recombinants were generated and crossed to UAS-Htt138QmRFP^1.
To further examine the RNAi/small molecule screen hits, we assayed in vivo efficacy by testing their ability to rescue lethality in our Drosophila HD model. […] Specific inhibitors of Lkb1 were not available for in vivo testing.

[4] = tested on: Htt138Q aggregate formation; assay: Htt-Q138 aggregation-inhibition screening of small molecules in Drosophila primary neural cultures (automated microscopy); type: cell-based; conditions: for Htt-Q138 aggregate formation (effect in words): range of concentrations (56 μM, 5.6 μM); for Htt-Q138 aggregation (effect in words): Htt-Q138 primary neural cultures
Description: Primary Cell Culture. Elav^c155-GAL4 virgins were collected en-masse and crossed to either UAS-Htt-Q138-mRFP^1, UAS-mCD8-GFP or UAS-HttQ15-mRFP^1, UAS-mCD8-GFP males to generate embryos for primary culture preparation. Neuroblasts were isolated as described (Sepp et al., 2008).
Compound screening: Primary cultures were re-suspended directly in Shields and Sang M3 media (Sigma) supplemented with 10 U/mL penicillin, 10 μg/mL streptomycin, 200 ng/mL insulin, and 5% fetal bovine serum. […] of compounds from arrayed small-molecule libraries (NINDS Custom Collection 2, Prestwick) Collection, BIOMOL2 ICCB-Longwood Known Bioactives High Concentration, various concentration from 1-15 mM in DMSO) were applied to 50 μL of cultures 24 hours after plating on optical bottom 384-well plates (Corning 3712). The neuroblast density was 18,500 cells/well. The primary screen was carried out in duplicate and hits were validated with 12 additional replicate wells.
as §1
Digital Image Analysis of High Content Screening Data Sets: Neuronal morphological analysis and Htt aggregate quantification for automated microscopy images was performed as previously described (Schulte et al., Wu et al.). In brief, Htt-Q138 aggregates were quantified as the total number of pixels/image with an intensity higher than an empirically set threshold. Statistical analysis was conducted using a two sample t-test. To quantify neuronal morphologies, cell body clusters (neuromeres) and neurites were extracted from images using our custom algorithms (Wu et al.). […] Absolute counts of neuromeres/bin were tabulated for all images. Neurite segment lengths were similarly clustered into three groups (short, medium, and long) using the K-means method and then quantified. Cell cluster and neurite counts were converted into percentages to control for any variation in cell number between wells arising from pipetting error. Mean neuromere area and neurite length for each image were also calculated to give a total of eight morphological metrics for image morphology quantification. For statistical analysis, p-values for each morphological feature were calculated using a two sample t-test (e.g. small neuromere feature of Htt-Q138 drug-treated cultures versus small neuromere feature of Htt-Q15 DMSO cultures). The resultant morphological p-values for individual features were then integrated into a single p-value using the Fisher method (Fisher 1932) defined by the equation χ^2=−2Σi=1^k loge(pi), where k represents independent tests, pi is the p-value of the i-th feature. The combined statistic has a χ^2 distribution with 2k degrees of freedom under the joint null hypothesis. This method works well in cases where the evidence against the null-hypothesis is spread across different features. Excluded from analysis were compound-treated wells with <6 images, out-of-focus images, or images that lacked cell profiles altogether.

PC12 cells = conditions: cited from earlier work
gap junction = conditions: cited from earlier work
[5] = Solubility / precipitation in cultures; type: physicochemical; conditions: liquid cultures
NP-3 mouse HD model = conditions: cited from earlier work

CCC1(O)C(=O)OCc2c1cc1n(c2=O)Cc2cc3cc(O)ccc3nc2-1 (centres unmarked) [10-OH-Camptothecin]
Dystrophic morphology profiles (effect in words) [1]: partially reverting dystrophic morphology profiles
Morphology profiles of Q138 expressing neurons (effect in words) [1]: Rescue of Htt-Q138 mutant morphology
Aggregate formation (confocal) [2]: reduces aggregate formation
Viability of Htt-Q138 expressing larvae / rescue of Htt-Q138 lethality ([3]; listed as 10-Hydroxycamptothecin): increased larval longevity in vivo, but to a lesser extent than Rapamycin; also recorded: more efficacious than Camptothecin
Htt-Q138 aggregate formation (effect in words) [4]: rescue aggregate formation

CC1(C)[C@@H](O)CC[C@]2(C)[C@H]3C(=O)C=C4[C@@H]5C[C@@](C)(C(=O)O)CC[C@]5(C)CC[C@@]4(C)[C@]3(C)CC[C@@H]12 [18β-Glycyrrhetinic acid]
Neurotoxicity in PC12 cellular stress model (PC12 cells): suppresses neurotoxicity
Gap junction activity (gap junction): block gap junction activity
Viability of Htt-Q138 expressing larvae / rescue of Htt-Q138 lethality [3]: rescue HD toxicity in vivo
Viability of Htt-Q138 expressing larvae / rescue of Htt-Q138 lethality ([3]; listed as 180-Glycyrrhetinic acid): almost as efficacious as Rapamycin

O=C(Nc1ccc(Br)cc1)c1cccc(S(=O)(=O)Nc2ccc(Br)cc2)c1 [C2-8]
Neurotoxic properties / morphological defects in cultures [1]: reduced axon outgrowth, neuromere size, and suppressed GFP expression
Morphology profiles of Q138 expressing neurons (effect in words) [1]: none reverted the morphology profiles of Q138 expressing neurons towards normal
Htt-Q138 aggregation (effect in words) [4]: reduced Htt-Q138 aggregation

CC[C@@]1(O)C(=O)OCc2c1cc1n(c2=O)Cc2cc3ccccc3nc2-1 [Camptothecin]
Precipitation when added to cultures [5]: readily precipitates when added to cultures
Neurotoxic properties / morphological defects in cultures ([1]; primary neural cultures): did not observe morphological defects
Dystrophic morphology profiles (effect in words) ([1]; range of concentrations (56 μM, 5.6 μM)): partially reverting dystrophic morphology profiles
Aggregate formation (confocal) [2]: reduces aggregate formation
Number of Htt138Q pixels/neuronal area (Htt-RFP pixels/neuromere and neurite GFP pixels) ([2]; mutant cultures, p<0.05, n=4): increase
Viability of Htt-Q138 expressing larvae / rescue of Htt-Q138 lethality [3]: increased larval longevity in vivo, but to a lesser extent than Rapamycin
Htt-Q138 aggregate formation (effect in words) [4]: rescue aggregate formation

O=C1Nc2ccc(I)cc2/C1=C/c1cc(Br)c(O)c(Br)c1 [GW5074]
Striatal degeneration (NP-3 mouse HD model): reduced striatal degeneration
Neurotoxic properties / morphological defects in cultures [1]: reduced axon outgrowth, neuromere size, and suppressed GFP expression
Morphology profiles of Q138 expressing neurons (effect in words) [1]: none reverted the morphology profiles of Q138 expressing neurons towards normal
Htt-Q138 aggregation (effect in words) [4]: reduced Htt-Q138 aggregation; also recorded: inhibited mutant Hu aggregate formation

C=C1[C@@H](O)[C@@H]2O[C@]3(CC[C@H](/C=C/[C@@H](C)[C@@H]4CC(C)=C[C@@]5(O[C@H](C[C@@](C)(O)C(=O)O)CC[C@H]5O)O4)O3)CC[C@H]2O[C@@H]1[C@@H](O)C[C@H](C)[C@H]1O[C@@]2(CCCCO2)CC[C@H]1C [Okadaic acid]
Morphology profiles of Q138 expressing neurons (effect in words) [1]: exacerbated the mutant Htt-Q138 mutant morphology
Htt-Q138 aggregation (effect in words) [4]: suppress Htt-Q138 aggregation

C[C@@H]1C[C@H]2O[C@@H]2/C=C\C=C\C(=O)Cc2c(Cl)c(O)cc(O)c2C(=O)O1 [Radicicol]
Neurotoxic properties / morphological defects in cultures [1]: reduced axon outgrowth, neuromere size, and suppressed GFP expression
Morphology profiles of Q138 expressing neurons (effect in words) [1]: none reverted the morphology profiles of Q138 expressing neurons towards normal
Htt-Q138 aggregation (effect in words) [4]: reduced Htt-Q138 aggregation

CO[C@H]1C[C@@H]2CC[C@@H](C)[C@@](O)(O2)C(=O)C(=O)N2CCCC[C@H]2C(=O)O[C@H]([C@H](C)C[C@@H]2CC[C@@H](O)[C@H](OC)C2)CC(=O)[C@H](C)/C=C(\C)[C@@H](O)[C@@H](OC)C(=O)[C@H](C)C[C@H](C)/C=C/C=C/C=C/1C [Rapamycin]
Neurotoxic properties / morphological defects in cultures ([1]; primary neural cultures): reduced axon outgrowth, neuromere size, and suppressed GFP expression
